This is an account of results in ChEMBL document CHEMBL1152081, “1,25-Dihydroxyvitamin D3 Hybrid Analogs with Structural changes at both the A-ring and the C,D-ring side-chain. II” (1995).

Holding throughout (format): functional
Assay [1] is filed under the species Rattus norvegicus. As to the kind of experiment: Stimulation of calcium currents by the compound in rat osteosarcoma cells at a concentration of 0.5 nM.
Assay [2] is filed under the species Rattus norvegicus. In words: Stimulation of calcium currents by the compound in rat osteosarcoma cells at a concentration of 5.0 nM.
The species named for assay [3] is Rattus norvegicus. As to the kind of experiment: Stimulation of calcium currents by the compound in rat osteosarcoma cells at a concentration of 0.05 nM.
For assay [4], the species on record is Rattus norvegicus. As to the kind of experiment: Stimulation of calcium currents by the compound in rat osteosarcoma cells at a concentration of 0.01 nM.

As for `C=C1/C(=C\C=C2/CCC[C@]3(C)C([C@@H](C)CSc4cccc(C(C)(C)O)c4)CC[C@@H]23)C[C@H](O)C[C@H]1CO` (stereo not given in full), the “Ca2+ current” value in the assay filed under Rattus norvegicus [1] came out at 6.24 mV; in the assay listed under Rattus norvegicus [2] it was 8.58 mV.
Regarding `C=C1/C(=C\C=C2/CCC[C@]3(C)C([C@@H](C)COCCCC(C)(C)O)CC[C@@H]23)C[C@@H](O)C[C@@H]1CO` (stereo not given in full), the “Ca2+ current” value was determined as 8.8 mV in the assay listed under Rattus norvegicus [1], 7.33 mV in the assay filed under Rattus norvegicus [3], 8.99 mV in the assay filed under Rattus norvegicus [2] and 5.42 mV in the assay filed under Rattus norvegicus [4].
For `C=C1/C(=C\C=C2/CCC[C@]3(C)C([C@@H](C)COCCCC(C)(C)O)CC[C@@H]23)C[C@H](O)C[C@H]1CO` (stereo not given in full), the “Ca2+ current” value amounted to 10 mV in the assay filed under Rattus norvegicus [1], 7.3 mV in the assay listed under Rattus norvegicus [3], 8.93 mV in the assay filed under Rattus norvegicus [2] and 4.94 mV in the assay listed under Rattus norvegicus [4].
In the case of `C=C1/C(=C\C=C2/CCC[C@]3(C)C([C@@H](C)CSc4cccc(C(C)(C)O)c4)CC[C@@H]23)C[C@@H](O)C[C@@H]1CO` (stereo not given in full), the “Ca2+ current” value in the assay listed under Rattus norvegicus [1] is reported as 6.6 mV; in the assay listed under Rattus norvegicus [2], 11.18 mV.
As to `C=C1/C(=C\C=C2/CCC[C@]3(C)[C@@H]([C@H](C)CCCC(C)(C)O)CC[C@@H]23)C[C@@H](O)C[C@@H]1O` [CALCITRIOL], the “Ca2+ current” value came to 5.73 mV in the assay filed under Rattus norvegicus [1], 1.78 mV in the assay listed under Rattus norvegicus [3] and 9.79 mV in the assay filed under Rattus norvegicus [2].
